The target of data set [1] is Acetylcholinesterase (Electrophorus electricus, UniProt O42275). Briefly: Mixed inhibition of electric eel AChE using acetylthiocholine iodide as substrate measured from 0.5 to 1.5 mins by Dixon plot analysis.
The target in data set [2] is Cholinesterase (Equus caballus) (UniProt P81908). The data set is described as follows: Inhibition of equine BChE at 0.3 uM using butyrylthiocholine iodide as substrate measured from 0.5 to 1.5 mins by spectrophotometry based Ellman's method relative to control.
Chain of Cholinesterase (Equus caballus) (P81908 whole entry): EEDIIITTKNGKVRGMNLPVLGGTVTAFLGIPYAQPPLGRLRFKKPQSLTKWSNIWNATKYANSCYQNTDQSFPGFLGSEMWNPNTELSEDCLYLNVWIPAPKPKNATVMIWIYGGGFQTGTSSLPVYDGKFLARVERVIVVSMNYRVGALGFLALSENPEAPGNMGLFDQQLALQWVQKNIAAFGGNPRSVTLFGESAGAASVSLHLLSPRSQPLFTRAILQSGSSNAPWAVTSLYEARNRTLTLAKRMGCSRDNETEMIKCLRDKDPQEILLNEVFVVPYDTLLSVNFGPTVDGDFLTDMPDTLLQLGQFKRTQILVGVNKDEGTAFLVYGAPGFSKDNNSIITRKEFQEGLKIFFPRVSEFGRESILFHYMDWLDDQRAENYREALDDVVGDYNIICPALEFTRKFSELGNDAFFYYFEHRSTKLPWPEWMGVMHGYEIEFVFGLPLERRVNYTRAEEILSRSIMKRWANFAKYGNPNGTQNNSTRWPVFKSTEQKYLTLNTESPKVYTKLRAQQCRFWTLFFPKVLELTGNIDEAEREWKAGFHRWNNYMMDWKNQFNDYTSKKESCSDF
In data set [3] the target is T1, Cholinesterase (Homo sapiens, UniProt P06276). The data set is described as follows: Inhibition of human serum BChE using butyrylthiocholine iodide as substrate preincubated for 20 mins followed by substrate addition measured for 3 mins by Ellman's method.
T1 sequence (P06276 whole entry): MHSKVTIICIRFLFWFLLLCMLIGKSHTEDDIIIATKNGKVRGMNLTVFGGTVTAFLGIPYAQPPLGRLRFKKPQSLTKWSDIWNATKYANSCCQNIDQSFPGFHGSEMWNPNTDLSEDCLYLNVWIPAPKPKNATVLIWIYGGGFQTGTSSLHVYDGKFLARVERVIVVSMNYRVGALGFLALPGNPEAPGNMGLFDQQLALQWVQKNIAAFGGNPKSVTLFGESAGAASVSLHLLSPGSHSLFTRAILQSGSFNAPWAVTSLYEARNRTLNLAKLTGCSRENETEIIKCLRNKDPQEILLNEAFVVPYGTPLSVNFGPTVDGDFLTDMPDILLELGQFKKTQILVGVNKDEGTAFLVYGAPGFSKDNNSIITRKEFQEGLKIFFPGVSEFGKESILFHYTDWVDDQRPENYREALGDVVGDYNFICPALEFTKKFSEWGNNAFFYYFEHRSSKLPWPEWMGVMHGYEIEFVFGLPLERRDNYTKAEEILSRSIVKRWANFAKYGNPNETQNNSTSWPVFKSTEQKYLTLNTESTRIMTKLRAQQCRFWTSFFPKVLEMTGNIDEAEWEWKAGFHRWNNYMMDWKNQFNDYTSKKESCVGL
In data set [4] the target is Cholinesterase (Equus caballus) (UniProt P81908). The data set is described as follows: Inhibition of equine BChE at 3.0 uM using butyrylthiocholine iodide as substrate measured from 0.5 to 1.5 mins by spectrophotometry based Ellman's method relative to control.
Data set [5] deals with T2, Acetylcholinesterase (Homo sapiens, UniProt P22303). Briefly: Inhibition of human serum AChE using acetylthiocholine iodide as substrate preincubated for 20 mins followed by substrate addition measured for 3 mins by Ellman's method.
T2 sequence (P22303 whole entry): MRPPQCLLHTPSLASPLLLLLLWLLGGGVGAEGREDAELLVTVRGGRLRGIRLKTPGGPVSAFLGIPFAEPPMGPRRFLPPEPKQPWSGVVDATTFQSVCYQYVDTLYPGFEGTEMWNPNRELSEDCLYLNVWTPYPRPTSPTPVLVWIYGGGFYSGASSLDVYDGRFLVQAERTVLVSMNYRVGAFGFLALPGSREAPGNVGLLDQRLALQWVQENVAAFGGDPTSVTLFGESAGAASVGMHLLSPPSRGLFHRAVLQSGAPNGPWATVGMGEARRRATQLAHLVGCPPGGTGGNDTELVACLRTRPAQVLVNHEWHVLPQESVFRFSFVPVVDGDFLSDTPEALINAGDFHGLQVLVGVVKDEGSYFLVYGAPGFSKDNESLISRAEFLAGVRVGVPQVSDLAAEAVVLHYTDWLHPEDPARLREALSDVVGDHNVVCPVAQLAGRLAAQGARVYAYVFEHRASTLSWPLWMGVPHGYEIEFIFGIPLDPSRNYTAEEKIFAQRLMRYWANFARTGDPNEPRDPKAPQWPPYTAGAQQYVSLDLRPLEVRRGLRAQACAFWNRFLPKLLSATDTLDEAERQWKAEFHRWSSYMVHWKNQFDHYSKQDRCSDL
For data set [6], the target named is Acetylcholinesterase (Electrophorus electricus) (UniProt O42275). The data set is described as follows: Inhibition of electric eel AChE at 0.03 uM using acetylthiocholine iodide as substrate measured from 0.5 to 1.5 mins by spectrophotometry-based Ellman's method relative to control.
Chain of Acetylcholinesterase (Electrophorus electricus) (O42275 24-633 limits assumed): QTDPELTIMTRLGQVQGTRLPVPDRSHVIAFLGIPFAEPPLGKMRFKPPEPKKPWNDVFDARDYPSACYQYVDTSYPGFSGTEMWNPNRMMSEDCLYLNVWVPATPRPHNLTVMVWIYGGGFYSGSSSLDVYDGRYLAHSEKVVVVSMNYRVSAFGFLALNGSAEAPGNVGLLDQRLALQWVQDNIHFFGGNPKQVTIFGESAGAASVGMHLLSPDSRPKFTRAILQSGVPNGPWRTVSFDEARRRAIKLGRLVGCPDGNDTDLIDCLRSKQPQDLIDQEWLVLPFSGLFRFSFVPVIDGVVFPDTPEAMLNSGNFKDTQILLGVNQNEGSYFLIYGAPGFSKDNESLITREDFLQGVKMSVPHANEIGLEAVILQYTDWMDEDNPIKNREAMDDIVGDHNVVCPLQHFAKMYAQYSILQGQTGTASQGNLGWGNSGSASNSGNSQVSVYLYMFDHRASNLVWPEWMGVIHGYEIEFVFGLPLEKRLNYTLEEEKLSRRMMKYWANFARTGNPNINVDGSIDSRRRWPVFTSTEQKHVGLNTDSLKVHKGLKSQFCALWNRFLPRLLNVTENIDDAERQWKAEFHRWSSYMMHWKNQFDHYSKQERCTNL
Data set [7] shares this target. Briefly: Inhibition of electric eel AChE at 0.3 uM using acetylthiocholine iodide as substrate measured from 0.5 to 1.5 mins by spectrophotometry-based Ellman's method relative to control.
Data set [8] shares this target. Briefly: Inhibition of electric eel AChE at 3.0 uM using acetylthiocholine iodide as substrate measured from 0.5 to 1.5 mins by spectrophotometry-based Ellman's method relative to control.
Data set [9] shares this target. Briefly: Time-dependent inhibition of electric eel AChE at 300 nM using acetylthiocholine iodide as substrate.
Data set [10] deals with T2, Acetylcholinesterase. The data set is described as follows: Inhibition of human serum AChE at 25 uM using acetylthiocholine iodide as substrate preincubated for 20 mins followed by substrate addition measured for 3 mins by Ellman's method.
The target in data set [11] is T1, Cholinesterase. The data set is described as follows: Inhibition of human serum BChE at 25 uM using butyrylthiocholine iodide as substrate preincubated for 20 mins followed by substrate addition measured for 3 mins by Ellman's method.
Data set [12] can be described thus: Cytotoxicity against human T67 cells after 24 hrs by MTT assay. As to conditions: T67, 24 h. The data set is classed as cell-based.
In data set [13] the test system is HeLa. Briefly: Cytotoxicity against human HeLa cells after 24 hrs by MTT assay. The data set is classed as cell-based.
Data set [14] concerns HeLa. The data set is described as follows: Cytotoxicity against human HeLa cells assessed as effect on cell viability up to 10 uM after 24 hrs by MTT assay. The data set is classed as cell-based.
Data set [15] concerns the target Cholinesterase (Equus caballus) (UniProt P81908). The data set is described as follows: Inhibition of equine BChE at 30 uM using butyrylthiocholine iodide as substrate measured from 0.5 to 1.5 mins by spectrophotometry based Ellman's method relative to control.
Data set [16] can be described thus: Cytotoxicity against human T67 cells assessed as effect on cell viability up to 10 uM after 24 hrs by MTT assay. Type of data set: cell-based.
Data set [17] can be described thus: Cytotoxicity against human T67 cells assessed as cell mortality at 10 uM after 24 hrs by MTT assay. The data set is classed as cell-based.
Data set [18] has as its system HeLa. Briefly: Cytotoxicity against human HeLa cells assessed as cell mortality at 10 uM after 24 hrs by MTT assay. The data set is classed as cell-based.

Experimental findings from ChEMBL document CHEMBL4130500, “New pyridine derivatives as inhibitors of acetylcholinesterase and amyloid aggregation” (Eur J Med Chem, 2017) are described below.

Each structure is given as a SMILES string. Active and inactive are the calls of the source. No cut-off for these calls is given here.

Chain of Acetylcholinesterase (Electrophorus electricus, UniProt O42275) (O42275 whole entry): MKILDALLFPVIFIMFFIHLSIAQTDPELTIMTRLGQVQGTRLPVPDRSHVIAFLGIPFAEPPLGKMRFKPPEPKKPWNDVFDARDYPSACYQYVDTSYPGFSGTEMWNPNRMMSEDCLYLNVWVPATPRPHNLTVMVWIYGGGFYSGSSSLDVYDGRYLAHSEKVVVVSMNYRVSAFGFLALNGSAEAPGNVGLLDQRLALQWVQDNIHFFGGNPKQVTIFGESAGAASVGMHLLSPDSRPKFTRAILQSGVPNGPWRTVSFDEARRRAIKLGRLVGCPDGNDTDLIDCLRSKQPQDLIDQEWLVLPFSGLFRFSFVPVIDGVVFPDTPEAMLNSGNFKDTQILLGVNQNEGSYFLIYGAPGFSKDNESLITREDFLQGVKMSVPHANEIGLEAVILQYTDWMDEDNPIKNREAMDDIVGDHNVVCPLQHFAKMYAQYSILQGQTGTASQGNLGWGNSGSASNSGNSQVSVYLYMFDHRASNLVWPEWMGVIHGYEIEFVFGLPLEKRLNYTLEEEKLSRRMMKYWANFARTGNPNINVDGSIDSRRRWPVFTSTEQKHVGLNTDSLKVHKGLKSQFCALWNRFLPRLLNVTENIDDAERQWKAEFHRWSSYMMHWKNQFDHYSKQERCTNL

In data set [1], `O=C(NCCCCCCNCc1c[nH]c2ccccc12)c1cc(Cl)nc(Cl)c1` registered a Ki of 0.205 µM. Further, the inhibition in [2] is 13%; in data set [4] it was 64%; in data set [6] it was 15%; in data set [7] it was 55%; in data set [8], 92%. Also, the IC50 amounted to 4.7 µM in data set [3] and 8.85 µM in [5].

In data set [1], `O=C(NCCCCCCNCc1ccccc1)c1cc(Cl)nc(Cl)c1` came in with a Ki of 0.0528 µM. Also, the inhibition in data set [2] amounted to 17%; in data set [4] it was 73%; in data set [6] it was 18%; in data set [7] it was 71%; in data set [8], 95%. Moreover, the IC50 in [3] came to 25.8 µM; in [5], 3.17 µM.

As for `COc1ccccc1CNCCCCCOC(=O)Nc1cc(Cl)nc(Cl)c1`, the Ki in data set [1] turned out to be 0.288 µM. Further, the inhibition is below 5% in data set [2]; 49% in data set [4]; 10% in [6]; 50% in [7]; 89% in data set [8]. In addition, the IC50 was found to be 4.02 µM in data set [3] and 6.16 µM in [5]. The TDI entry in [9] was “inactive”.

As for `O=C(NCCCCCCNCc1ccc(Oc2ccccc2)cc1)c1cc(Cl)nc(Cl)c1`, the inhibition in data set [10] was below 20%; in [4], 18%; in [11], below 20%; in [8] it was 16%. Also, the inhibition entry in data set [7] was “inactive”.

Regarding `COc1ccccc1CNCCCCCCNC(=O)c1cc(Cl)nc(Cl)c1`, the affinity in data set [1] corresponds to a Ki of 0.355 µM. For the same compound, the inhibition came to 6% in data set [2]; 54% in data set [4]; 14% in [6]; 49% in data set [7]; 90% in data set [8]. Also, the IC50 in data set [3] amounted to 45.5 µM; in data set [5] it was 8.3 µM.

As for `O=C(Nc1cc(Cl)nc(Cl)c1)OCCCCCNCc1ccccc1`, the IC50 in [12] turned out to be 24.1 µM; in [13] it was 20.8 µM; in data set [3], 4.59 µM; in data set [5] it was 0.153 µM. The compound also came in with a Ki in data set [1] of 0.0386 µM. For the same compound, the Activity result in data set [14] and in [16] was “Non-Toxic” throughout. The inhibition in data set [2] was 17%; in data set [15], 95%; in [6], 65%; in [7], 91%; in [8], 99%. In addition, in [9], the TDI result was “inactive”.

In turn, `O=C(Nc1ccncc1Br)OCCCCCNCc1ccccc1` displayed a Ki in [1] of 0.404 µM. Besides, the inhibition in [2] was below 5%; in [4], 57%; in [6], 20%; in [7], 55%; in data set [8] it was 90%. Moreover, the IC50 worked out at 5.27 µM in data set [3] and 4.04 µM in data set [5]. Also, in [9], the TDI result is “inactive”.

For the compound `O=C(Nc1cc(Cl)nc(Cl)c1)OCCCCCNCc1c[nH]c2ccccc12`, the IC50 stood at 5.8 µM in data set [12], 6.7 µM in data set [13], 0.828 µM in data set [3] and 0.648 µM in [5]. In addition, the Ki in [1] came out at 0.157 µM. In addition, the inhibition in data set [2] is 8%; in data set [4], 57%; in data set [6], 24%; in data set [7], 76%; in data set [8] it was 97%. Besides, the Activity in data set [17] and in data set [18] was 50% in each case. The TDI entry in [9] is “inactive”.

For `O=C(Nc1cc(Cl)nc(Cl)c1)OCCCCCCNCc1ccccc1`, the concentration for half-maximal inhibition (IC50) in [12] was found to be 13.2 µM; in data set [13], 12.5 µM; in data set [3], 4.01 µM; in data set [5], 0.759 µM. The compound further displayed a Ki in data set [1] of 0.259 µM. For the same compound, the inhibition is 12% in data set [2]; 89% in data set [15]; 33% in data set [6]; 72% in data set [7]; 91% in [8]. Further, the Activity in data set [17] and in data set [18] was 25% throughout. Moreover, the TDI result in [9] was “inactive”.

For the compound `O=C(Nc1cc(Cl)nc(Cl)c1)OCCCCCNCc1ccc(Oc2ccccc2)cc1`, the inhibition in data set [10] is below 20%; in data set [4] it was 60%; in [7] it was below 5%; in [8], 24%. For the same compound, the midpoint of inhibition in [3], the IC50, lay at 8.41 µM. For the same compound, the TDI entry in data set [9] is “inactive”.

Consider `O=C(NCCCCCCNCc1ccc2ccccc2c1)c1cc(Cl)nc(Cl)c1`, for which the figures for the IC50 in [3] and in data set [5] were 9.96 µM and 99.7 µM, respectively. Moreover, the inhibition in data set [4] came out at 46%; in data set [8], 15%. Besides, in [7], the inhibition result is “inactive”.
